Some test systems named below: MOLT-4 leukemia; HOP-92 NSCLC; LOX IMVI melanoma; TK-10 renal; SF-295 CNS; MALME-3M melanoma; HS 578T breast; SF-268 CNS; OVCAR-4 ovarian; SK-MEL-2 melanoma.
Common to all, as to test: growth of human tumour cells (NCI), 48 h

Structures are written as SMILES.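 Method: 48-hour compound exposure of cells in 96-well plates, five concentrations, linear interpolation of endpoints. Abbreviation: GI50, concentration required for 50% inhibition of growth. At the TGI there is no net growth.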

In the case of `NC1=CC(=O)C(=O)c2ccccc21`, the GI50 was 22.4 µM in the assay on MOLT-4 leukemia; 30 µM in the assay with HOP-92 NSCLC; 15.9 µM in the assay with LOX IMVI melanoma; 16.7 µM in the assay on TK-10 renal; 12.7 µM with SF-295 CNS; 11 µM in the assay on MALME-3M melanoma. For the same compound, the GI50 in the assay on HS 578T breast is 12.1 µM; in the assay on SF-268 CNS, 18.8 µM. The TGI was > 100 µM in the assay with MOLT-4 leukemia; 93.8 µM in the assay on HOP-92 NSCLC; 39.7 µM in the assay on LOX IMVI melanoma; 47.5 µM in the assay with TK-10 renal; 33.4 µM in the assay with SF-295 CNS; 25.7 µM in the assay on MALME-3M melanoma. Besides, the TGI in the assay with HS 578T breast amounted to 40.6 µM; with SF-268 CNS, 62.3 µM.

With `CCC1C[N+]2=C(c3cc(OC)c(OC)cc3CC2)c2c1cc1n2CCc2cc(OC)c(OC)cc2-1` (stereo not given), the GI50 was 3.97 µM in the assay with MOLT-4 leukemia; 1.14 µM in the assay with OVCAR-4 ovarian; 1.78 µM in the assay with HOP-92 NSCLC; 3.72 µM with LOX IMVI melanoma; 6.84 µM in the assay on TK-10 renal; 2.67 µM in the assay with SK-MEL-2 melanoma. Besides, the GI50 in the assay with SF-295 CNS was 6.37 µM; in the assay with HS 578T breast it was 4.1 µM; with SF-268 CNS, 3.49 µM. Also, the TGI in the assay on MOLT-4 leukemia came out at 23.6 µM; with OVCAR-4 ovarian, 8.87 µM; with HOP-92 NSCLC it was 6.08 µM; in the assay with LOX IMVI melanoma, 23.2 µM; with TK-10 renal, 21.1 µM; with SK-MEL-2 melanoma, 7.31 µM. Besides, the TGI in the assay with SF-295 CNS was 27.7 µM; in the assay on HS 578T breast it was > 100 µM; in the assay on SF-268 CNS it was 31.8 µM.

`COc1ccc2cn3c4ccc(O)cc4[nH]c(=O)c3c2c1`: the GI50 in the assay with MOLT-4 leukemia is 0.308 µM; in the assay with OVCAR-4 ovarian, 9.51 µM; in the assay on HOP-92 NSCLC, 11.6 µM; with LOX IMVI melanoma, 0.101 µM; in the assay on TK-10 renal, 2.19 µM; in the assay on SK-MEL-2 melanoma it was 0.0602 µM. In addition, the values for the GI50 with SF-295 CNS, in the assay with HS 578T breast and in the assay on SF-268 CNS were 0.129 µM, 0.249 µM and 0.217 µM, respectively. Also, the TGI in the assay with MOLT-4 leukemia was determined as 16.7 µM; with OVCAR-4 ovarian, 23.3 µM; in the assay with HOP-92 NSCLC, 25.8 µM; with LOX IMVI melanoma it was 4.93 µM; with TK-10 renal, 8.08 µM; in the assay with SK-MEL-2 melanoma, 12.8 µM. The TGI worked out at 12.9 µM with SF-295 CNS, 31.6 µM in the assay on HS 578T breast and 17.5 µM with SF-268 CNS.

For `COc1ccc(OC)c(-c2nc3sc(C)cn3c2/C=C2\C(=O)N(C)c3ccccc32)c1`, the GI50 in the assay with MOLT-4 leukemia is 15.9 µM; in the assay on OVCAR-4 ovarian it was 34.1 µM; in the assay on LOX IMVI melanoma, 17.3 µM; in the assay on TK-10 renal, 48.3 µM; in the assay on SK-MEL-2 melanoma, 15.6 µM; in the assay on SF-295 CNS, 19.6 µM. Also, the GI50 in the assay with MALME-3M melanoma was 28.5 µM; with HS 578T breast, 23.6 µM; in the assay on SF-268 CNS it was 19.7 µM. The TGI is 59 µM in the assay on MOLT-4 leukemia; > 100 µM in the assay with OVCAR-4 ovarian; 37.9 µM in the assay with LOX IMVI melanoma; > 100 µM with TK-10 renal; 43.6 µM with SK-MEL-2 melanoma; 46.7 µM in the assay with SF-295 CNS. The TGI came to 70.1 µM in the assay on MALME-3M melanoma, 70.4 µM with HS 578T breast and 63.6 µM in the assay with SF-268 CNS.

Regarding `COc1ccc(C#CC2=C(Br)C(=O)OC2)cc1`, the GI50 was 4.44 µM with MOLT-4 leukemia; 2.46 µM in the assay with OVCAR-4 ovarian; 6.42 µM in the assay with LOX IMVI melanoma; 1.94 µM in the assay with TK-10 renal; 23 µM in the assay on SK-MEL-2 melanoma; 10.5 µM in the assay on SF-295 CNS. For the same compound, the GI50 in the assay on HS 578T breast was 7.43 µM; in the assay on SF-268 CNS it was 16.9 µM. In addition, the TGI with MOLT-4 leukemia is > 50 µM; in the assay on OVCAR-4 ovarian, 11.4 µM; in the assay on LOX IMVI melanoma, 14 µM; in the assay with TK-10 renal it was 16.2 µM; with SK-MEL-2 melanoma, > 50 µM; in the assay with SF-295 CNS, 29.1 µM. Further, the values for the TGI in the assay with HS 578T breast and in the assay on SF-268 CNS were 28.2 µM and > 50 µM, respectively.

For the compound `CCSc1nnc(-c2ccc3ccccc3c2O)n1-c1ccccc1`, the GI50 in the assay on MOLT-4 leukemia was > 100 µM; in the assay on OVCAR-4 ovarian, 7.22 µM; with HOP-92 NSCLC it was 5 µM; in the assay on MALME-3M melanoma, 69.7 µM; in the assay with HS 578T breast, > 100 µM; with SF-268 CNS, 8.02 µM. In addition, the TGI was > 100 µM with MOLT-4 leukemia; > 100 µM in the assay on OVCAR-4 ovarian; 92.1 µM in the assay with HOP-92 NSCLC; > 100 µM with TK-10 renal; > 100 µM in the assay on MALME-3M melanoma; > 100 µM with HS 578T breast. Further, the TGI in the assay with SF-268 CNS was > 100 µM.

As for `Cc1ccc(Nn2c(SCC(=O)Nc3nc(-c4ccccc4)cs3)nc(C)c2C)cc1`, the GI50 in the assay on MOLT-4 leukemia is 3.46 µM; in the assay with OVCAR-4 ovarian, 2.13 µM; in the assay on LOX IMVI melanoma it was 3.32 µM; with TK-10 renal, 18.9 µM; in the assay with SK-MEL-2 melanoma, 7.58 µM; in the assay with SF-295 CNS, 1.06 µM. The GI50 with MALME-3M melanoma was 2.48 µM; in the assay with HS 578T breast it was 34.1 µM; in the assay with SF-268 CNS, 9.1 µM. Moreover, the TGI with MOLT-4 leukemia is > 100 µM; in the assay on OVCAR-4 ovarian, > 100 µM; in the assay with LOX IMVI melanoma, 19.3 µM; in the assay on TK-10 renal it was > 100 µM; in the assay with SK-MEL-2 melanoma, 35.3 µM; in the assay on SF-295 CNS, 5.89 µM. Also, the TGI in the assay on MALME-3M melanoma was 13.6 µM; with HS 578T breast it was > 100 µM; in the assay on SF-268 CNS, > 100 µM.

With `COc1cc2c3c(n(CCCN=[N+]=[N-])c(=O)c2cc1OC)-c1ccc(NC(C)=O)cc1C3=O`, the GI50 with OVCAR-4 ovarian was > 50 µM; in the assay with HOP-92 NSCLC, > 50 µM; in the assay on LOX IMVI melanoma it was > 50 µM; in the assay with TK-10 renal, > 50 µM; with SK-MEL-2 melanoma it was > 50 µM; in the assay with SF-295 CNS it was 8.96 µM. For the same compound, the GI50 in the assay on MALME-3M melanoma, in the assay on HS 578T breast and in the assay on SF-268 CNS was > 50 µM in each case. Further, the TGI with OVCAR-4 ovarian, in the assay on HOP-92 NSCLC, with LOX IMVI melanoma, with TK-10 renal, in the assay on SK-MEL-2 melanoma and in the assay on SF-295 CNS was > 50 µM in each case. For the same compound, the TGI in the assay on MALME-3M melanoma, in the assay with HS 578T breast and with SF-268 CNS was > 50 µM throughout.

Source of the values: PubChem BioAssay (NCI).
